Test: in vitro
Conditions: human, hela cells, % viability

Row | Structure (SMILES) | viability at 28.5 h, 10 µM [%]
1 | CCOc1ccc(-c2cncc(Nc3cccc(C(F)(F)F)c3)n2)cc1 [CBK065798] | 50
2 | Clc1ccc(Nc2cncc(-c3cccs3)n2)cc1 [CBK065805] | 107
3 | Nc1cccc(-c2cncc(N(CCO)CCO)n2)c1 [CBK065808] | 95.5
4 | Fc1ccc(-c2cncc(NCCc3ccncc3)n2)c(F)c1 [CBK065810] | 104
5 | OCCN(CCO)c1cncc(-c2cccc3ccccc23)n1 [CBK065812] | 84.5
6 | O=C(c1ccco1)N1CCN(c2cncc(-c3ccc(F)cc3F)n2)CC1 [CBK065818] | 93.7
7 | Fc1ccc(-c2cncc(NCc3ccco3)n2)c(F)c1 [CBK065834] | 91.9
8 | OC1CCC(Nc2cncc(-c3ccc(F)cc3F)n2)CC1 (stereo not drawn) [CBK065835] | 107
9 | CCCNc1cncc(-c2ccc(OCC)cc2)n1 [CBK065845] | 99.8
10 | OCCCNc1cncc(-c2ccc(F)cc2F)n1 [CBK065851] | 96.1
11 | CCOc1ccc(-c2cncc(Nc3ccc(C#N)cc3)n2)cc1 [CBK065862] | 87.2
12 | Fc1ccc(-c2cncc(NCCCN3CCOCC3)n2)c(F)c1 [CBK065867] | 91.3
13 | CC(C)[C@@H](CO)Nc1cncc(-c2ccc(F)cc2F)n1 [CBK065875] | 98.5
14 | CCOc1ccc(-c2cncc(NCCc3c[nH]c4ccccc34)n2)cc1 [CBK065876] | 93
15 | OCC1CCCN1c1cncc(-c2ccc(F)cc2F)n1 (stereo not drawn) [CBK065891] | 112
16 | CN(C)CCN(C)c1cncc(-c2ccc3c(c2)OCO3)n1 [CBK065897] | 101
17 | O=C(O)C1CCN(c2cncc(-c3ccc(F)cc3F)n2)CC1 [CBK065899] | 95.2
18 | OC1CCC(Nc2cncc(-c3cccc4ccccc34)n2)CC1 (stereo not drawn) [CBK065902] | 90.2
19 | FC(F)(F)Oc1cccc(-c2cncc(NCc3cccs3)n2)c1 [CBK065909] | 97.5
20 | COc1cc(CNc2cncc(-c3ccc4c(c3)OCO4)n2)cc(OC)c1OC [CBK065922] | 99.5
21 | c1coc(CNc2cncc(-c3ccc4c(c3)OCO4)n2)c1 [CBK065930] | 101
22 | C[C@@H](Nc1cncc(-c2ccc3c(c2)OCO3)n1)c1ccccc1 [CBK065954] | 108
23 | CCOc1cccc(-c2cncc(N(C)CCN(C)C)n2)c1 [CBK065977] | 102
24 | CN1CCCN(c2cncc(-c3ccc4c(c3)OCO4)n2)CC1 [CBK065978] | 91.7

Row | Structure (SMILES) | viability at 28.5 h, 10 µM [%]
25 | OCCNc1cncc(-c2ccc3c(c2)OCO3)n1 [CBK065979] | 85.6
26 | CN1CCCN(c2cncc(-c3cc4ccccc4o3)n2)CC1 [CBK065997] | 93
27 | Fc1ccc(CNc2cncc(-c3cc4ccccc4o3)n2)cc1 [CBK066005] | 122
28 | CC(=O)Nc1ccc(-c2cncc(Nc3ccc(C#N)cc3)n2)cc1 [CBK066009] | 97.5
29 | OCCN(CCO)c1cncc(-c2ccc(F)c(Cl)c2)n1 [CBK066015] | 96.3
30 | CCOc1cccc(-c2cncc(NC(C)CCCC(C)(C)O)n2)c1 (stereo not drawn) [CBK066020] | 95.6
31 | CN(C)CCN(C)c1cncc(-c2cc3ccccc3o2)n1 [CBK066028] | 92.7
32 | CC(C)(CO)CNc1cncc(-c2cc3ccccc3o2)n1 [CBK066029] | 91.1
33 | OC1CCC(Nc2cncc(-c3cccc(Cl)c3)n2)CC1 (stereo not drawn) [CBK066031] | 91
34 | c1ccc(CCNc2cncc(-c3cc4ccccc4o3)n2)nc1 [CBK066036] | 96.5
35 | CCOc1cccc(-c2cncc(N[C@H](C)c3ccccc3)n2)c1 [CBK066042] | 103
36 | O=C(c1ccco1)N1CCN(c2cncc(-c3cc4ccccc4o3)n2)CC1 [CBK066044] | 101
37 | c1ccc2oc(-c3cncc(N4CCN(CCN5CCCC5)CC4)n3)cc2c1 [CBK066052] | 97.1
38 | C[C@@H](Nc1cncc(-c2ccncc2)n1)c1ccccc1 [CBK066055] | 90
39 | c1ccc2oc(-c3cncc(NCCc4c[nH]c5ccccc45)n3)cc2c1 [CBK066068] | 93.1
40 | CC(CCCC(C)(C)O)Nc1cncc(-c2ccc(C(N)=O)cc2)n1 (stereo not drawn) [CBK066071] | 103
41 | CCOc1cccc(-c2cncc(NCCO)n2)c1 [CBK066075] | 81
42 | CCCC/C=C/c1cncc(NCCc2c[nH]c3ccccc23)n1 [CBK066081] | 100
43 | O=C(O)/C=C/c1cccc(-c2cncc(N3CCN(Cc4ccccn4)CC3)n2)c1 [CBK066085] | 96
44 | CC(C)(CO)CNc1cncc(-c2ccccc2CO)n1 [CBK066088] | 96.3
45 | OCCC1CCCCN1c1cncc(C2CCOC2)n1 (stereo not drawn) [CBK066127] | 101
46 | COc1cc(CNc2cncc(-c3cccc(NC(C)=O)c3)n2)cc(OC)c1OC [CBK066133] | 100
47 | OCc1cccc(-c2cncc(N3CCN(CCN4CCCC4)CC3)n2)c1 [CBK066136] | 99.8
48 | COc1ccccc1-c1cn2ccnc2c(N(C)CCN(C)C)n1 [CBK066156] | 97.5

Row | Structure (SMILES) | viability at 28.5 h, 10 µM [%]
49 | O=C(O)CCc1ccc(-c2cn3ccnc3c(N3CCOCC3)n2)cc1 [CBK066166] | 93.6
50 | c1ccc(-c2cn3ccnc3c(N3CCN(c4ccncc4)CC3)n2)cc1 [CBK066177] | 110
51 | COc1cc(-c2cn3ccnc3c(N[C@H](CO)C(C)C)n2)cc(OC)c1OC [CBK066220] | 103
52 | c1ccc(Nc2nc(-c3ccc(N4CCOCC4)cc3)cn3ccnc23)cc1 [CBK066222] | 90.4
53 | Clc1cccc(-c2cn3ccnc3c(NCc3cccnc3)n2)c1 [CBK066237] | 104
54 | Brc1cn2ccnc2c(NCCc2ccccn2)n1 [CBK066244] | 92.9
55 | COc1cc(Nc2nc(-c3cccc(C(=O)NCCN(C)C)c3)cn3ccnc23)cc(OC)c1OC [CBK066250] | 89
56 | COc1ccc(Nc2nc(-c3ccc(Cl)cc3)cn3ccnc23)cn1 [CBK066254] | 113
57 | CCN(CCO)c1ccc(Nc2nc(-c3c(OC)cccc3OC)cn3ccnc23)cc1 [CBK066267] | 89.9
58 | CCCC/C=C/c1cn2ccnc2c(NCCc2ccccn2)n1 [CBK066275] | 106
59 | CN(C)CCN(C)c1nc(-c2ccc3[nH]ccc3c2)cn2ccnc12 [CBK066276] | 94.4
60 | FC(F)C(F)(F)Oc1cccc(Nc2nccn3ccnc23)c1 [CBK066284] | 91.6
61 | c1ccc2cc(-c3cn4ccnc4c(NC4CCOCC4)n3)ccc2c1 [CBK066290] | 96.1
62 | CC(C)[C@H](CO)Nc1nc(-c2ccco2)cn2ccnc12 [CBK066316] | 103
63 | COc1ccc(C(C)C)cc1-c1cn2ccnc2c(NC2CCOCC2)n1 [CBK066320] | 94
64 | CC(=O)Nc1ccc(Nc2nc(Br)cn3ccnc23)cc1 [CBK066338] | 104
65 | c1ccc2c(-c3cn4ccnc4c(Nc4ccc5cn[nH]c5c4)n3)cccc2c1 [CBK066346] | 88
66 | c1ccc2cc(-c3cn4ccnc4c(Nc4ccc(N5CCOCC5)cc4)n3)ccc2c1 [CBK066359] | 108
67 | CCCNc1nc(-c2cc(OC)c(OC)c(OC)c2)cn2ccnc12 [CBK066363] | 99.2
68 | c1ccc2cc(-c3cn4ccnc4c(N4CCN(c5ccncc5)CC4)n3)ccc2c1 [CBK066369] | 89.2
69 | CCNc1nc(-c2cccc(/C=C/C(=O)O)c2)cn2ccnc12 [CBK066373] | 88.5
70 | CCCNc1nc(-c2cccc(O)c2)cn2ccnc12 [CBK066395] | 93.5
71 | COc1ccccc1-c1cn2ccnc2c(Nc2cccc(Cl)c2)n1 [CBK066399] | 89.4
72 | COCCNc1nc(-c2ccoc2)cn2ccnc12 [CBK066416] | 104

Row | Structure (SMILES) | viability at 28.5 h, 10 µM [%]
73 | CCNc1nc(-c2ccc(S(C)(=O)=O)cc2)cn2ccnc12 [CBK066452] | 87.1
74 | Nc1ccc(-c2cn3ccnc3c(Nc3ccc(Cl)cc3)n2)cc1 [CBK066453] | 87
75 | CN(C)CCN(C)c1nc(-c2ccc(C(C)(C)C)cc2)cn2ccnc12 [CBK066477] | 107
76 | Cc1cccc(-c2cn3ccnc3c(N3CCN(c4ccccn4)CC3)n2)c1 [CBK066478] | 89.3
77 | CSc1ccc(-c2cn3ccnc3c(NCCc3ccncc3)n2)cc1 [CBK066479] | 102
78 | CCNc1nc(-c2cc(Cl)cc(Cl)c2)cn2ccnc12 [CBK066483] | 89.6
79 | CCNc1nc(-c2ccc(SCC)cc2)cn2ccnc12 [CBK066489] | 114
80 | Clc1ccc(Nc2nc(-c3ccoc3)cn3ccnc23)cc1 [CBK066497] | 102
81 | Cc1csc(-c2cn3ccnc3c(N(C)CCN(C)C)n2)c1 [CBK066553] | 96.3
82 | CCCNc1nc(-c2ccc(F)c(F)c2)cn2ccnc12 [CBK066573] | 94.8
83 | CCOc1cccc(-c2cn3ccnc3c(NCCc3ccccn3)n2)c1 [CBK066586] | 94.4
84 | Nc1ccc(-c2cn3ccnc3c(NCc3ccccc3)n2)cc1 [CBK066592] | 108
85 | CSc1ccc(-c2cn3ccnc3c(N3CCN(CCO)CC3)n2)cc1 [CBK066596] | 86.6
86 | c1coc(CNc2nc(-c3ccoc3)cn3ccnc23)c1 [CBK066610] | 98.8
87 | CCOc1cccc(-c2cn3ccnc3c(N3CCN(CCO)CC3)n2)c1 [CBK066612] | 95.9
88 | COc1cc(CNc2nc(-c3ccc(C(C)(C)C)cc3)cn3ccnc23)cc(OC)c1OC [CBK066615] | 99.3
89 | CCCNc1nc(-c2ccc(SC)cc2)cn2ccnc12 [CBK066619] | 95.5
90 | CCCNc1nc(-c2ccc(C)c(C)c2)cn2ccnc12 [CBK066627] | 101
91 | FC(F)(F)c1cccc(-c2cn3ccnc3c(NCc3ccncc3)n2)c1 [CBK066632] | 97.8
92 | c1ccc(CCNc2nc(-c3cccs3)cn3ccnc23)nc1 [CBK066633] | 101
93 | CN1CCN(c2nc(-c3ccoc3)cn3ccnc23)CC1 [CBK066645] | 97.1
